ChEMBL document CHEMBL1201862, “PubChem BioAssay data set” (2004)
The source made the active and inactive calls.

Assays:
cells [1] = type: functional, cell-based
[2] = molecular target: T1, Nuclear receptor subfamily 0 group B member 1 (Homo sapiens, UniProt P51843); type: functional, cell-based;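 note: HEK293T cells transfected with SF-1 and DAX-1 plus StAR promoter luciferase reporter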
T1 sequence (P51843 whole entry): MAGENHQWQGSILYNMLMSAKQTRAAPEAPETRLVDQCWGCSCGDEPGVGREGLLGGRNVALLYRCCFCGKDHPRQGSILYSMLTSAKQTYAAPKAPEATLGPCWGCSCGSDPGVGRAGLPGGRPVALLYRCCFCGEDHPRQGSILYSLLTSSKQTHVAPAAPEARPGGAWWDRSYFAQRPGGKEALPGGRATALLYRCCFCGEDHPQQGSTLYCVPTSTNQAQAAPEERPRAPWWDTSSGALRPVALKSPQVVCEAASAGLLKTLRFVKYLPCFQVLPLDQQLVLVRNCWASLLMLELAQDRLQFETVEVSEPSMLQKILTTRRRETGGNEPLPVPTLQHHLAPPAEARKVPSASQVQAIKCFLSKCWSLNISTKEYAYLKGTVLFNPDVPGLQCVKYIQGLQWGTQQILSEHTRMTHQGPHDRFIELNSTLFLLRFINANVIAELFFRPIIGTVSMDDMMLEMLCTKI

[3] = molecular target: T2, Orexin/Hypocretin receptor type 1 (Homo sapiens, UniProt O43613); experiment: Homogeneous Time Resolved Fluorescence (HTRF)-based cell-based high throughput dose response assay for antagonists of the orexin 1 receptor (OX1R; HCRTR1). [Related pubchem assays (depositor defined):AID434989, AID435008, AID463079, AID485270, AID492963, AID492964, AID492965, AID493232, AID504717, AID504718]; type: functional
T2 sequence (O43613 whole entry): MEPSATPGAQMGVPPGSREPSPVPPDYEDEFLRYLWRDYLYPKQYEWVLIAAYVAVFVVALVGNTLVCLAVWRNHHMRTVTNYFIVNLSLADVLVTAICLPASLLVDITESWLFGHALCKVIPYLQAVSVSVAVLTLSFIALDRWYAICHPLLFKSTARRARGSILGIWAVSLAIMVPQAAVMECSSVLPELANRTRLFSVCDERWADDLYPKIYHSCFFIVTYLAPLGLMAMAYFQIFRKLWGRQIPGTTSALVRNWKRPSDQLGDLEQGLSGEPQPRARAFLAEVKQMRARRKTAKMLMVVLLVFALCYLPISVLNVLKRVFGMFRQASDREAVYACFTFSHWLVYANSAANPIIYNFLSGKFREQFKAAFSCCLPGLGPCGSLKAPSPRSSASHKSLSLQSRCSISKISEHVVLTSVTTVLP

[4] = molecular target: T2, Orexin/Hypocretin receptor type 1; experiment: Fluorescence-based cell-based high throughput dose response assay for antagonists of the orexin 1 receptor (OX1R; HCRTR1). [Related pubchem assays (depositor defined):AID434989, AID435008, AID463079, AID485270, AID492963, AID492964, AID492965, AID493232, AID504717, AID504718]; type: functional
Orexin receptor type 2 [5] = molecular target: T3, Orexin receptor type 2 (Homo sapiens, UniProt O43614); experiment: Counterscreen assay for antagonists of the orexin 1 receptor (OX1R; HCRTR1): Fluorescence-based cell-based dose response assay for antagonists of the orexin 2 receptor (OX2R; HCRTR2), run by assay provider.; type: functional
T3 sequence (O43614 whole entry): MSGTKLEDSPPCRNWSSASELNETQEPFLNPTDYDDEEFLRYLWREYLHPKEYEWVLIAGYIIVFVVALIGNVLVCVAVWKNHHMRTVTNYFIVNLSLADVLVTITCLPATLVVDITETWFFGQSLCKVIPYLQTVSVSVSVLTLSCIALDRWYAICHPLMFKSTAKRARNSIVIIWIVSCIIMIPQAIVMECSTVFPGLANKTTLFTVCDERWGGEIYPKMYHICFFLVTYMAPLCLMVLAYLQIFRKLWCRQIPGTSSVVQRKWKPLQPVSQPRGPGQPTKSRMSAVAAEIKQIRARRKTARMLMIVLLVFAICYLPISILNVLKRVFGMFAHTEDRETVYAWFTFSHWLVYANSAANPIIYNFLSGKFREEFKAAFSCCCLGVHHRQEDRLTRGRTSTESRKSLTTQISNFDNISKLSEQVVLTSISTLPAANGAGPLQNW

H4 = experiment: Luminescence Cell-Based Dose Response HTS to Identify Activators of 5'UTR Stem-Loop Driven Prion Protein mRNA Translation in H4 Neuroglioblastoma Cells. [Related pubchem assays: 1829 (Project Summary), 1814 (Primary HTS)]; type: functional; details: Homo sapiens
CHO-K1 = experiment: (§1) Counterscreen for antagonists of the orexin 1 receptor (OX1R; HCRTR1): Homogeneous time resolved fluorescence (HTRF)-based cell-based dose response assay to identify antagonists of the parental CHO-K1 cell line. [Related pubchem assays (depositor defined):AID434989, AID435008, AID463079, AID485270, AID492963, AID492964, AID492965, AID493232, AID504699, AID504701]; type: functional; details: Cricetulus griseus
[6] = as §1, with “Fluorescence-based” for “Homogeneous time resolved fluorescence (HTRF)-based”, “cell-based high throughput” for “cell-based”, “CHO” for “CHO-K1”; type: functional
Orexin receptor type 2 [7] = molecular target: T3, Orexin receptor type 2; experiment: Counterscreen assay for antagonists of the orexin 1 receptor (OX1R; HCRTR1): Homogeneous Time Resolved Fluorescence (HTRF)-based cell-based dose response assay for antagonists of the orexin 2 receptor (OX2R; HCRTR2), run by assay provider.; type: functional
cells [8] = type: functional
[9] = molecular target: T4, DNA repair protein RAD52 homolog (Homo sapiens, UniProt P43351); type: functional, biochemical
T4 sequence (P43351 whole entry): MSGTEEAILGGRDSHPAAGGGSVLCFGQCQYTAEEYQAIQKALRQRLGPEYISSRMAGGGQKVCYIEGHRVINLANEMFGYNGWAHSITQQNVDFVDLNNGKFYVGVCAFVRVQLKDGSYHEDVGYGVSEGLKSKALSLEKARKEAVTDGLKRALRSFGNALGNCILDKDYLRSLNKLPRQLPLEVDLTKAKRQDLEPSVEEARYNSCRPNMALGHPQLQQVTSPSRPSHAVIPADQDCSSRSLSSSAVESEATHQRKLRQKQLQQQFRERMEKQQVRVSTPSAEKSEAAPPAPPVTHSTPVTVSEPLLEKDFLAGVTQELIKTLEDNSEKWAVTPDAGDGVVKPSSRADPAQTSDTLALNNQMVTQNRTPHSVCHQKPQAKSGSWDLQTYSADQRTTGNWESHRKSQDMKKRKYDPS

For CNc1nnc(SCC(=O)c2cc(C)n(C3CC3)c2C)s1, the IC50 (cells [1]) was > 67.5 µM (inactive) and the IC50 [2] was > 67.5 µM (inactive).

With Nc1nc(-c2sc3nc4c(cc3c2N)CCCC4)nc(N2CCOCC2)n1 the IC50 [3] was 0.797 µM (active), the IC50 [4] was 5.52 µM (active) and the IC50 (Orexin receptor type 2 [5]) was > 88.8 µM (inactive). For the same compound, the EC50 (H4) was > 120 µM (not active), the IC50 (CHO-K1) was > 66.2 µM (inactive) and the IC50 [6] was > 49.8 µM (inactive). The IC50 (Orexin receptor type 2 [7]) was > 50 µM (inactive).

For Cc1cc(C(=O)NCc2cccc(Cl)c2)c2ccccc2n1, the IC50 [3] was 0.976 µM (active), the IC50 [4] was 12.6 µM (inactive) and the IC50 (Orexin receptor type 2 [5]) was > 88.8 µM (inactive). The IC50 (CHO-K1) was > 66.2 µM (inactive), the IC50 [6] was > 49.7 µM (inactive) and the IC50 (Orexin receptor type 2 [7]) was 7.59 µM (active).

For COc1ccccc1C(=O)Nc1nc2cc3c(cc2s1)OCCO3, the IC50 [3] was 1.95 µM (active), the IC50 [4] was 6.51 µM (active) and the IC50 (Orexin receptor type 2 [5]) was > 88.8 µM (inactive). The IC50 (CHO-K1) was > 66.2 µM (inactive), the IC50 [6] was > 49.8 µM (inactive) and the IC50 (Orexin receptor type 2 [7]) was > 50 µM (inactive).

In the case of CCOC(=O)c1c(C)nc2c3ccccc3ccn12, the IC50 (cells [8]) is reported as 37.3 µM (active), the IC50 [3] is reported as 3.62 µM (active) and the IC50 [4] is reported as 32.9 µM (inactive). The IC50 (Orexin receptor type 2 [5]) was > 88.8 µM (inactive), the IC50 (CHO-K1) was > 66.3 µM (inactive) and the IC50 [6] was > 49.8 µM (inactive). The IC50 (Orexin receptor type 2 [7]) was 30 µM (inactive).

With CCOC(=O)c1c(C)n(-c2ccc(C)cc2)c2ccc(OCC(O)CN3CCN(C)CC3)cc12 (centres undefined) the AC50 [9] was 6.54 µM (active).
